Measurements published in patent publication US11980774B2, “Illumination devices and related methods for phototherapeutic light treatments in the presence of vitamins” (priority 2021, dated 2024).

Test system: South African variant of SARS-CoV-2 (SARS-CoV-2 SA)
Format: cell-based
Settings: 10 μM RFN, no ascorbate; 425 nm light 7.5 J/cm^2; FIG. 3B

## Cc1cc2nc3c(=O)[nH]c(=O)nc-3n(C[C@H](O)[C@H](O)[C@H](O)CO)c2cc1C [riboflavin]
  fold reduction in viral loads of SARS-CoV-2 SA: 642 fold
  reduction in viral loads of SARS-CoV-2 SA: ~99.8%
  reductions in viral loads of SARS-CoV-2 SA: significant reductions
